Laboratory results taken from patent publication US10624871B2, “Bismuth(III) compounds and methods thereof” (priority 2016, dated 2020).

Experiments:
[1] = system: K. pneumonia (NDM-1+); test: Microdilution MIC and MBC assay, FICI; assay type: cell-based; settings: Bi(III) compound at 32 μg mL^−1, K. pneumonia (NDM-1+)
[2] = system: C. freundii (NDM-1+); test: Microdilution MIC and MBC assay, FICI; assay type: cell-based; settings: Bi(III) compound at 32 μg mL^−1, C. feudii (NDM-1+)
[3] = system: E. coli (IMP-4+); test: Microdilution MIC and MBC assay, FICI; assay type: cell-based; settings: Bi(III) compound at 32 μg mL−1, E. coli (IMP-4+)
[4] = system: E. coli (NDM-1−); test: Checkerboard MIC analysis, NDM-1-null strain; assay type: cell-based; settings: NDM-1-null E. coli strain
Protocol: FIGS. 10 (a)-(b) show a heat map of checkerboard MIC analysis over MER and CBS against clinical isolates of (a) E. coli (NDM-1^+) and (b) E. coli (NDM-1^−).
MIC values of either antibiotics or Bi(III) compounds were determined firstly by standard broth micro-dilution method (Clinical and Laboratory Standards Institute (CLSI) M100-S20, 2010). Briefly, bacteria cells were cultured in LB broth overnight at 37° C. at 250 rpm and the optical density was measured at 600 nm (OD600) using a microtiter plate reader. The bacteria density was adjusted to about 1×10^6 CFU mL^−1 and checked by CFU counting on agar plates afterwards. Tested compounds were added triplicately into individual wells of flat-bottomed 96-well plates and performed two-fold serial dilution, followed by addition of prepared bacterial inoculum. […] The MIC was determined as the lowest concentration of compounds that could inhibit the growth of microorganism by both visual reading and OD600 measurement. […]
For the test of drug combination, antibiotics and Bi(III) compounds were co-administrated at concentrations up to 8 times higher than the MIC of the compounds tested alone. […] The FICIs were determined based on the following equation: FICI=FICA+FICB=CA/MICA+CB/MICB where MICA and MICB are the MIC values of compound A and B when functioning alone, and CA and CB are the concentrations of compound A and B at the effective combinations. […]

[5] = system: Rosetta (DE3) (NDM-1+) bacterial cells; test: Growth with other β-lactam antibiotics in presence of Bi(III) compounds; assay type: cell-based, E. coli; settings: CEF 32 μg mL^−1; CBS 32 or Bi-NAC 16 μg mL^−1
Protocol: Note that evident restoration of activities of antibiotics was observed. The concentrations used in this test represent are: CBS […], Bi-NAC 16 μg mL^−1, all the antibiotics 32 μg mL^−1. Abbreviation: AMOX: amoxicillin; AMP: ampicillin; NAF: nafcillin; CEF: cefdinir.

[6] = system: E. coli (NDM-1+); test: Time kill assay; assay type: cell-based; settings: combination 16 μg mL^−1 MER and 32 μg mL−1 CBS, endpoint 24 hrs
Protocol: Time kill assay was used to further explore the synergy between MER and Bi(III) compounds which were represented by CBS herein. In a typical assay, the concentrations of the compounds used in this test represent as follows: 16 μg mL^−1 MER, 32 μg mL−1 CBS. Bacteria were cultured for overnight and diluted 1:250 into LB broth at 37° C. for 3 hrs to reach log phase. The initial bacterial concentration was adjusted to ˜10^7 CFU mL^−1 according to standard curve. Tested compounds either alone or in combination was added to 20 mL of freshly prepared bacterial solution in a 50 ml tube, and incubate at 37° C. LB broth with no compounds served as a positive control. Aliquots of […] suspension were withdrawn after different time intervals (0, 1, 2, 4, 6, 8, and 24 hrs). Bacterial concentrations were estimated from colony counts by serial dilution in phosphate-buffered saline (PBS) and plating on LB agar. All assays were triplicated and performed three times in different days. Data from three independent experiments were averaged and plotted as log10 CFU mL^−1 versus time (h) for each time point over 24 hrs as shown in FIG. 12.

O=C([O-])CC([O-])(CC(=O)[O-])C(=O)[O-].O=C([O-])CC([O-])(CC(=O)[O-])C(=O)[O-].[Bi+3].[Bi+3].[K+] [Complex 10, colloidal bismuth subcitrate]
MBC of MER with Bi(III) compound [1]: 8 µg/mL | MIC of MER with Bi(III) compound [1]: 4 µg/mL | MBC of MER with Bi(III) compound [2]: 1 µg/mL | MIC of MER with Bi(III) compound [2]: 0.5 µg/mL | MBC of MER with Bi(III) compound [3]: 8 µg/mL | MIC of MER with Bi(III) compound [3]: 4 µg/mL | synergy of MER and CBS in checkerboard MIC [4]: no inhibition was observed | reduction of growth rate of bacterial cells, with CEF [5]: 76% | lowering of bacteria density versus single components [6]: more than 1000 fold
